From ChEMBL document CHEMBL2029281, “An improved microwave assisted one-pot synthesis, and biological investigations of some novel aryldiazenyl chromeno fused pyrrolidines” (2012)
Values after ≈ are worked out from the molar mass of the structure shown.

Assays:
Vibrio cholerae = assay: Antibacterial activity against Vibrio cholerae MTCC 3906 by macrobroth dilution assay; format: functional
Salmonella typhi = assay: Antibacterial activity against Salmonella typhi MTCC 98 by macrobroth dilution assay; format: functional, Salmonella enterica subsp. enterica serovar Typhi; conditions: Salmonella enterica
Aspergillus fumigatus = assay: Antifungal activity against Aspergillus fumigatus MTCC 3008 by macrobroth dilution assay; format: functional
Escherichia coli = assay: Antibacterial activity against Escherichia coli MTCC 443 by macrobroth dilution assay; format: functional
Bacillus subtilis = assay: Antibacterial activity against Bacillus subtilis MTCC 441 by macrobroth dilution assay; format: functional
Clostridium tetani = assay: Antibacterial activity against Clostridium tetani MTCC 449 by macrobroth dilution assay; format: functional
Candida albicans = assay: Antifungal activity against Candida albicans MTCC 227 by macrobroth dilution assay; format: functional
Streptococcus pneumoniae = assay: Antibacterial activity against Streptococcus pneumoniae MTCC 1936 by macrobroth dilution assay; format: functional
[1] = tested on: Mycobacterium tuberculosis; assay: Growth inhibition of Mycobacterium tuberculosis H37Rv at 250 ug/mL; format: functional; conditions: read-out: GI
[2] = tested on: Mycobacterium tuberculosis; assay: Growth inhibition of Mycobacterium tuberculosis H37Rv at 0.2 ug/mL; format: functional; conditions: read-out: GI
[3] = tested on: Mycobacterium tuberculosis; assay: Growth inhibition of Mycobacterium tuberculosis H37Rv at >[…]; format: functional

Compound | MIC (Vibrio cholerae) | MIC (Salmonella typhi) | MIC (Aspergillus fumigatus) | MIC (Escherichia coli) | MIC (Bacillus subtilis) | MIC (Clostridium tetani) | MIC (Candida albicans) | MIC (Streptococcus pneumoniae) | inhibition of growth at 250 µg/mL [1] | inhibition of growth at 0.2 µg/mL [2] | growth inhibition (GI) [3]
CCOC(=O)[C@H]1C[C@@H]2COc3ccc(/N=N/c4ccccc4)cc3[C@@H]2N1Cc1ccccc1 | 200 µg/mL (≈ 453 µM) | > 250 µg/mL | > 250 µg/mL | > 250 µg/mL | 250 µg/mL (≈ 566 µM) | 200 µg/mL (≈ 453 µM) | > 250 µg/mL | 250 µg/mL (≈ 566 µM) | 20% |  | 
CCN1[C@@H](C(=O)OC)C[C@@H]2COc3ccc(/N=N/c4ccccc4)cc3[C@@H]21 | > 250 µg/mL | > 250 µg/mL | > 250 µg/mL | 200 µg/mL (≈ 547 µM) | 200 µg/mL (≈ 547 µM) | > 250 µg/mL | > 250 µg/mL | 200 µg/mL (≈ 547 µM) | 55% |  | 
CCCCOC(=O)[C@H]1C[C@@H]2COc3ccc(/N=N/c4ccccc4)cc3[C@@H]2N1CC | > 250 µg/mL | 100 µg/mL (≈ 245 µM) | > 250 µg/mL | 200 µg/mL (≈ 491 µM) | 100 µg/mL (≈ 245 µM) | 250 µg/mL (≈ 613 µM) | 200 µg/mL (≈ 491 µM) | > 250 µg/mL | 68% |  | 
CCOC(=O)[C@H]1C[C@@H]2COc3ccc(/N=N/c4ccccc4)cc3[C@@H]2N1C | 125 µg/mL (≈ 342 µM) | 50 µg/mL (≈ 137 µM) | > 250 µg/mL | 50 µg/mL (≈ 137 µM) | > 250 µg/mL | 200 µg/mL (≈ 547 µM) | > 250 µg/mL | 250 µg/mL (≈ 684 µM) | 64% |  | 
O=C(N[C@H](CO)[C@H](O)c1ccc([N+](=O)[O-])cc1)C(Cl)Cl [CHLORAMPHENICOL] | 50 µg/mL (≈ 155 µM) | 50 µg/mL (≈ 155 µM) |  | 50 µg/mL (≈ 155 µM) | 50 µg/mL (≈ 155 µM) | 50 µg/mL (≈ 155 µM) |  | 50 µg/mL (≈ 155 µM) |  |  | 
CCn1cc(C(=O)O)c(=O)c2cc(F)c(N3CCNCC3)cc21 [NORFLOXACIN] | 10 µg/mL (≈ 31.3 µM) | 10 µg/mL (≈ 31.3 µM) |  | 10 µg/mL (≈ 31.3 µM) | 100 µg/mL (≈ 313 µM) | 50 µg/mL (≈ 157 µM) |  | 10 µg/mL (≈ 31.3 µM) |  |  | 
O=C(O)c1cn(C2CC2)c2cc(N3CCNCC3)c(F)cc2c1=O [CIPROFLOXACIN] | 25 µg/mL (≈ 75.4 µM) | 25 µg/mL (≈ 75.4 µM) |  | 25 µg/mL (≈ 75.4 µM) |  |  |  | 50 µg/mL (≈ 151 µM) |  |  | 
CCCOC(=O)[C@H]1C[C@@H]2COc3ccc(/N=N/c4ccccc4)cc3[C@@H]2N1CC | 100 µg/mL (≈ 254 µM) | 100 µg/mL (≈ 254 µM) | > 250 µg/mL | 50 µg/mL (≈ 127 µM) | 200 µg/mL (≈ 508 µM) | 200 µg/mL (≈ 508 µM) | > 250 µg/mL | > 250 µg/mL | 95% |  | 
COC(=O)[C@H]1C[C@@H]2COc3ccc(/N=N/c4ccccc4)cc3[C@@H]2N1Cc1ccccc1 | > 250 µg/mL | 250 µg/mL (≈ 585 µM) | > 250 µg/mL | 125 µg/mL (≈ 292 µM) | 250 µg/mL (≈ 585 µM) | 200 µg/mL (≈ 468 µM) | 200 µg/mL (≈ 468 µM) | 250 µg/mL (≈ 585 µM) | 87% |  | 
COC1=CC(=O)C[C@@H](C)[C@]12Oc1c(Cl)c(OC)cc(OC)c1C2=O [GRISEOFULVIN] |  |  | 100 µg/mL (≈ 283 µM) |  |  |  | 500 µg/mL (≈ 1420 µM) |  |  |  | 
CCOC(=O)[C@H]1C[C@@H]2COc3ccc(/N=N/c4ccccc4)cc3[C@@H]2N1CC | 250 µg/mL (≈ 659 µM) | 250 µg/mL (≈ 659 µM) | 250 µg/mL (≈ 659 µM) | > 250 µg/mL | > 250 µg/mL | 250 µg/mL (≈ 659 µM) | > 250 µg/mL | 100 µg/mL (≈ 264 µM) | 98% |  | 
CCCOC(=O)[C@H]1C[C@@H]2COc3ccc(/N=N/c4ccccc4)cc3[C@@H]2N1C | 250 µg/mL (≈ 659 µM) | 250 µg/mL (≈ 659 µM) | > 250 µg/mL | 250 µg/mL (≈ 659 µM) | 250 µg/mL (≈ 659 µM) | > 250 µg/mL | > 250 µg/mL | 250 µg/mL (≈ 659 µM) | 41% |  | 
CCCCOC(=O)[C@H]1C[C@@H]2COc3ccc(/N=N/c4ccccc4)cc3[C@@H]2N1Cc1ccccc1 | 250 µg/mL (≈ 532 µM) | 100 µg/mL (≈ 213 µM) | > 250 µg/mL | 200 µg/mL (≈ 426 µM) | 250 µg/mL (≈ 532 µM) | > 250 µg/mL | > 250 µg/mL | 25 µg/mL (≈ 53.2 µM) | 90% |  | 
COC(=O)[C@H]1C[C@@H]2COc3ccc(/N=N/c4ccccc4)cc3[C@@H]2N1C | 100 µg/mL (≈ 285 µM) | 200 µg/mL (≈ 569 µM) | > 250 µg/mL | 200 µg/mL (≈ 569 µM) | 125 µg/mL (≈ 356 µM) | > 250 µg/mL | 250 µg/mL (≈ 711 µM) | 125 µg/mL (≈ 356 µM) | 72% |  | 
CC1(C)S[C@@H]2[C@H](NC(=O)[C@H](N)c3ccccc3)C(=O)N2[C@H]1C(=O)O [AMPICILLIN] | 100 µg/mL (≈ 286 µM) | 100 µg/mL (≈ 286 µM) |  | 100 µg/mL (≈ 286 µM) | 250 µg/mL (≈ 715 µM) | 250 µg/mL (≈ 715 µM) |  | 100 µg/mL (≈ 286 µM) |  |  | 
CCCCOC(=O)[C@H]1C[C@@H]2COc3ccc(/N=N/c4ccccc4)cc3[C@@H]2N1C | 200 µg/mL (≈ 508 µM) | 250 µg/mL (≈ 635 µM) | > 250 µg/mL | 250 µg/mL (≈ 635 µM) | 50 µg/mL (≈ 127 µM) | 100 µg/mL (≈ 254 µM) | > 250 µg/mL | 250 µg/mL (≈ 635 µM) | 25% |  | 
NNC(=O)c1ccncc1 [ISONIAZID] |  |  |  |  |  |  |  |  |  | 99% | 
NYSTATIN |  |  | 100 µg/mL |  |  |  | 100 µg/mL |  |  |  | 
Cc1ncc([N+](=O)[O-])n1CCO [METRONIDAZOLE] |  |  |  |  |  |  |  |  |  |  | 99%
CCCOC(=O)[C@H]1C[C@@H]2COc3ccc(/N=N/c4ccccc4)cc3[C@@H]2N1Cc1ccccc1 | 100 µg/mL (≈ 220 µM) | 250 µg/mL (≈ 549 µM) | > 250 µg/mL | 250 µg/mL (≈ 549 µM) | 250 µg/mL (≈ 549 µM) | 250 µg/mL (≈ 549 µM) | 250 µg/mL (≈ 549 µM) | 200 µg/mL (≈ 439 µM) | 84% |  | 
